Reference: publication PMC9562916, “Investigation of the Phenolic Component Bioavailability Using the In Vitro Digestion/Caco-2 Cell Model, as well as the Antioxidant Activity in Chinese Red Wine” (Foods, 2022)
Like-named read-outs stand apart in the source and are kept apart here. Marks after values point to notes of the source that are not given here.

Tests used:
[1] = PC content of red wine before and after in vitro simulated gastrointestinal digestion (HPLC); type: in vitro ADME; settings: for Increase in content after digestion: after digestion vs undigested
Experimental: The digestion procedure was carried out by adapting the method of Brodkorb et al. and Gómez et al.. […] One milliliter (50 units/mL) of porcine amylase was prepared in a 15 mM Na₃PO₄ buffer solution (pH adjusted to 6.8) containing 1.5 mM CaCl2, and it was added to the red wine solution. After 5 min, 4.5 mL of 0.12 M HCl was added to the mixture to adjust the pH to 2.4. One milliliter of porcine pepsin (0.02 mg/L) was dissolved in a 20 mM HCl solution. The mixture was then maintained at 37 °C for 120 min. The digestion mixture was then centrifuged at 8000× g for 15 min to obtain samples from the gastric digestion phase. […] The mixture was incubated at pH 6.5 at 37 °C for 3 h before being centrifuged. The extracts of the intestinal phase were the supernatants. The same operation was done three times, and each sample was stored in a refrigerator (−20 °C) immediately for further analysis.
The Pati method was adopted, with slight modifications, to measure the content of the PCs. The Agilent 1100 series HPLC instrument was used; it was equipped with a degasser, quaternary pump solvent delivery, a DAD system, and a single quadrupole mass detector coupled with an electrospray ionization LC–MS interface. Briefly, th samples were injected into a Zorbax SB C18 reversed-phase column (5 µm,150 × 2.1 mm, Agilent Technologies, Santa Clara, CA, USA) using an autosampler after filtering through 0.45 µm cellulose acetate syringe filters. The column temperature was kept at 30 °C, the injection volume was 10 µL, and the flow rate was 0.3 mL/min. The eluents were water and formic acid in a 99:1 (v/v) (A) ratio and 100% acetonitrile (B). […] The MS configuration was as follows: ESI, negative ion mode, nebulizer pressure of 30 psi, a dry gas flow rate of 10 mL/min, dry gas temperature of 350 °C, and a scan rate of 100~1200 m/z. PCs were determined according to their retention times, UV/VIS spectra, and high-resolution MS spectra, in addition to a comparison with the standards. […] Putative annotations were made using spectral features and literature information on the chromatographic properties and mass spectra records from the metabolome database. A standard curve was drawn using methanol solutions with different concentrations as the standards. The limits of detection and quantitation were calculated according to the signal-to-noise ratio (limit of detection: signal-to-noise ratio ≥ 3; limit of quantitation: signal-to-noise ratio ≥ 10). […] PCs All of the samples were determined in triplicate.

[2] = test system: Caco-2 cell monolayer; assay: Caco-2 transepithelial transport assay of digested red wine; type: in vitro ADME, human
Experimental: Caco-2 cells were inoculated following the method of Hubatsch et al. […] Briefly, a 5% v/v of CO2 incubator at 37 °C was used to house the cells. […] Caco-2 cells were sub-cultured when they reached 80-90% of the adherent growth by treating them with a 0.05% v/v of trypsin-EDTA solution. The culture between passages 35 and 40 was used for the following experiment. Transport experiments were performed according to the method of Wu et al. with slight modifications. First, 1.0 × 10^5 Caco-2 cells were inoculated onto 12 mm transparent cell culture plates (Transwell). Media were carefully injected into the apical (0.5 mL) and basolateral (1.5 mL) sides of the Transwell plates. The cell culture medium had to be replaced every other day until the cells formed a monolayer. The integrity and transport ability of the Caco-2 cell monolayer were evaluated by measuring the trans-epithelial electrical resistance (TEER) with a MilliCell voltammeter (Millicell ERS-2, Merck Millipore, Billerica, MA, USA). […] When the cell activity exceeded 0.9, a transport experiment was conducted. The apical side was injected with a digested red wine sample (0.5 mL) and was thoroughly mixed with […] Balanced Salt Solution (HBSS) buffer solution. […] The cells were then cultured in a 37 °C, 5% CO2 incubator. Then, 0.25 mL samples were separately taken from the basolateral side of the monolayer. An equal volume of HBSS buffer was then added every half hour from the beginning of the culture until the end of the culture at 6 h. The collected samples were subsequently filtered and placed in the sample bottle for further HPLC analysis. This experiment was repeated several times to collect enough samples for the next antioxidant test. […] The Agilent 1100 series HPLC instrument was used; it was equipped with a degasser, quaternary pump solvent delivery, a DAD system, and a single quadrupole mass detector coupled with an electrospray ionization LC-MS interface. […] The column temperature was kept at 30 °C, the injection volume was 10 μL, and the flow rate was 0.3 mL/min. The eluents were water and formic acid in a 99:1 (v/v) (A) ratio and 100% acetonitrile (B). The gradient elution procedure was as follows: (1) 3% B solvent at 0 min, (2) 3 to 16% B solvent at 10 min, (3) 16 to 20% B solvent at 30 min, and (4) 20% B solvent maintained until the procedure was completed. The MS configuration was as follows: ESI, negative ion mode, nebulizer pressure of 30 psi, a dry gas flow rate of 10 mL/min, dry gas temperature of 350 °C, and a scan rate of 100~1200 m/z. PCs were determined according to their retention times, UV/VIS spectra, and high-resolution MS spectra, in addition to a comparison with the standards. […] If a standard was unavailable, a structurally related compound was used. Putative annotations were made using spectral features and literature information on the chromatographic properties and mass spectra records from the metabolome database. A standard curve was drawn using methanol solutions with different concentrations as the standards. […] PCs All of the samples were determined in triplicate.

[3] = Cabernet red wine, after simulated gastrointestinal digestion
[4] = Helanshan red wine, after simulated gastrointestinal digestion
[5] = Tianzhu red wine, after simulated gastrointestinal digestion
[6] = Cabernet red wine, digested sample, basolateral side of Caco-2 monolayer
[7] = Helanshan red wine, digested sample, basolateral side of Caco-2 monolayer
[8] = Tianzhu red wine, digested sample, basolateral side of Caco-2 monolayer
[9] = apical to basolateral, digested Cabernet red wine
[10] = apical to basolateral, digested Helanshan red wine
[11] = apical to basolateral, digested Tianzhu red wine

Row | SMILES | PC Contents, Cabernet, After Digestion [1] | PC Contents, Helanshan, After Digestion [1] | PC Contents, Tianzhu, After Digestion [1] | Apparent Permeability Coefficients, Cabernet ([2]; Caco-2) | Apparent Permeability Coefficients, Helanshan ([2]; Caco-2) | Apparent Permeability Coefficients, Tianzhu ([2]; Caco-2) | PC Contents, Cabernet, Transmembrane ([2]; Caco-2) | PC Contents, Helanshan, Transmembrane ([2]; Caco-2) | PC Contents, Tianzhu, Transmembrane ([2]; Caco-2) | PC Contents, Cabernet, After Digestion [1, 3] | PC Contents, Helanshan, After Digestion [1, 4] | PC Contents, Tianzhu, After Digestion [1, 5] | PC Contents, Cabernet, Transmembrane [2, 6] | PC Contents, Helanshan, Transmembrane [2, 7] | PC Contents, Tianzhu, Transmembrane [2, 8] | Apparent Permeability Coefficients, Cabernet [2, 9] | Apparent Permeability Coefficients, Helanshan [2, 10] | Apparent Permeability Coefficients, Tianzhu [2, 11] | Increase in content after digestion ([1]; Helanshan red wine) [%] | Increase in content after digestion ([1]; Tianzhu red wine) [%]
1 | O.Oc1cc(O)c2c(c1)O[C@H](c1ccc(O)c(O)c1)[C@@H](O)C2 [Catechin] | 25.4 ± 0.86 ^b mg/L | 15.42 ± 0.83 ^b mg/L | 16.7 ± 0.75 ^b mg/L | 7.77 ± 1.14 ^a ×10^−6 cm/s | 7.69 ± 1.23 ^a ×10^−6 cm/s | 7.83 ± 1.17 ^a ×10^−6 cm/s |  |  |  |  |  |  |  |  |  |  |  |  |  | 
2 | O=C(/C=C/c1ccc(O)cc1)O[C@@H](C(=O)O)[C@@H](O)C(=O)O [Coutaric acid] | 1.96 ± 0.08 ^b mg/L | 2.97 ± 0.15 ^b mg/L |  | 12.13 ± 1.19 ^a ×10^−6 cm/s | 12.91 ± 1.32 ^a ×10^−6 cm/s | 12.46 ± 1.42 ^a ×10^−6 cm/s | 0.38 ± 0.02 ^a mg/L | 0.61 ± 0.03 ^a mg/L | 0.64 ± 0.03 ^a mg/L |  |  |  |  |  |  |  |  |  |  | 
3 | CC(=O)OCC1OC(Oc2cc3c(O)cc(O)cc3[o+]c2-c2cc(O)c(O)c(O)c2)C(O)C(O)C1O (stereo not shown) [Delphinidin-3-acglc] |  |  |  |  |  |  |  |  |  | 0.29 ± 0.014 ^b mg/L | 0.14 ± 0.007 ^b mg/L | 0.22 ± 0.008 ^b mg/L | 0.04 ± 0.002 ^a mg/L | 0.02 ± 0.001 ^a mg/L | 0.04 ± 0.002 ^a mg/L | 8.57 ± 1.26 ^a ×10^−6 cm/s | 8.64 ± 1.38 ^a ×10^−6 cm/s | 8.78 ± 1.44 ^a ×10^−6 cm/s |  | 
4 | OC[C@H]1O[C@@H](Oc2cc3c(O)cc(O)cc3[o+]c2-c2cc(O)c(O)c(O)c2)[C@H](O)[C@@H](O)[C@@H]1O [Delphinidin-3-glc, delphinidin-3-glucoside] |  |  |  |  |  |  |  |  |  | 2.96 ± 0.09 ^b mg/L | 2.63 ± 0.10 ^c mg/L | 2.87 ± 0.11 ^c mg/L | 0.59 ± 0.02 ^a mg/L | 0.53 ± 0.02 ^a mg/L | 0.57 ± 0.02 ^a mg/L | 12.38 ± 2.37 ^a ×10^−6 cm/s | 12.59 ± 2.64 ^a ×10^−6 cm/s | 12.45 ± 2.11 ^a ×10^−6 cm/s | 28.3 | 20.6
5 | COc1cc(/C=C/C(=O)OC(C(=O)O)C(O)C(=O)O)ccc1O (stereo not shown) [Fertaric acid] | 3.11 ± 0.12 ^b mg/L | 1.81 ± 0.10 ^c mg/L | 4.11 ± 0.18 ^c mg/L | 28.2 ± 4.11 ^a ×10^−6 cm/s | 27.9 ± 3.64 ^a ×10^−6 cm/s | 27.6 ± 3.89 ^a ×10^−6 cm/s | 1.40 ± 0.07 ^a mg/L | 0.81 ± 0.04 ^a mg/L | 0.82 ± 0.03 ^a mg/L |  |  |  |  |  |  |  |  |  |  | 
6 | COc1cc(-c2oc3cc(O)cc(O)c3c(=O)c2O[C@@H]2O[C@H](CO)[C@@H](O)[C@H](O)[C@H]2O)ccc1O [Isorhamnetin-3-glc] |  |  |  |  |  |  |  |  |  | 10.82 ± 0.32 ^b mg/L | 9.87 ± 0.47 ^b mg/L | 9.88 ± 0.35 ^b mg/L | 0.74 ± 0.03 ^a mg/L | 0.69 ± 0.03 ^a mg/L | 1.97 ± 0.07 ^a mg/L | 4.29 ± 0.33 ^a ×10^−6 cm/s | 4.39 ± 0.31 ^a ×10^−6 cm/s | 4.35 ± 0.34 ^a ×10^−6 cm/s |  | 
7 | COc1cc(-c2oc3cc(O)cc(O)c3c(=O)c2O[C@@H]2O[C@H](CO)[C@@H](O)[C@H](O)[C@H]2O)cc(O)c1O [Laricitrin-3-glc] | 29.78 ± 1.28 ^b mg/L | 18.76 ± 0.81 ^b mg/L | 28.63 ± 0.86 ^b mg/L | 1.76 ± 0.17 ^a ×10^−6 cm/s | 1.83 ± 0.16 ^a ×10^−6 cm/s | 1.79 ± 0.13 ^a ×10^−6 cm/s | 0.84 ± 0.04 ^a mg/L | 0.55 ± 0.03 ^a mg/L | 5.70 ± 0.29 ^a mg/L |  |  |  |  |  |  |  |  |  |  | 
8 | COc1cc(-c2[o+]c3cc(O)cc(O)c3cc2O[C@@H]2O[C@H](COC(C)=O)[C@@H](O)[C@H](O)[C@H]2O)cc(OC)c1O [Malvidin-3-acglc] |  |  |  |  |  |  |  |  |  | 39.8 ± 1.51 ^b mg/L | 30.5 ± 0.92 ^b mg/L | 39.3 ± 1.30 ^b mg/L | 8.02 ± 0.38 ^a mg/L | 6.06 ± 0.25 ^a mg/L | 7.83 ± 0.23 ^a mg/L | 12.59 ± 2.16 ^a ×10^−6 cm/s | 12.42 ± 2.23 ^a ×10^−6 cm/s | 12.37 ± 2.45 ^a ×10^−6 cm/s |  | 
